From patent publication US7767200B2, “Cancer treatment using viruses, fluoropyrimidines and camptothecins” (Wellstat Biologics Corporation, priority 2005, dated 2010)

What was measured:
[1] = test system: human HT1080 fibrosarcoma cells; design: species or system athymic mice; details: mouse, in vivo
[2] = test system: human SW620 colon carcinoma cells; design: species or system athymic mice; details: mouse, in vivo

Compound: O=c1[nH]cc(F)c(=O)[nH]1 [5-FU, 5-fluorouracil]
- Complete Tumor Responses (CR), % [1]: 0%
- Durable CRs, % [2]: 0%

Compound: CCc1c2c(nc3ccc(OC(=O)N4CCC(N5CCCCC5)CC4)cc13)-c1cc3c(c(=O)n1C2)COC(=O)[C@]3(O)CC [Irinotecan, 7-ethyl-10-[4-(1-piperidino)-1-piperidino]-carbonyloxycamptothecin]
- Durable CRs, % [2]: 0%
